pIC50, pKd: −log10 of the molar value.
Experiments:
[1] = target: T1, human RORγt ligand binding domain (RORγt LBD) (Homo sapiens, UniProt P51449); assay: RORγt ThermoFluor assay; details: estimated from thermal shift concentration response
T1 construct: His-tag (N); TurboTEV protease cleavage site (ENLYFQG) (N); made in house; host or cells: E. coli (pHIS1, a modified pET expression vector)
T1 sequence (P51449 with tags, fused parts or gaps): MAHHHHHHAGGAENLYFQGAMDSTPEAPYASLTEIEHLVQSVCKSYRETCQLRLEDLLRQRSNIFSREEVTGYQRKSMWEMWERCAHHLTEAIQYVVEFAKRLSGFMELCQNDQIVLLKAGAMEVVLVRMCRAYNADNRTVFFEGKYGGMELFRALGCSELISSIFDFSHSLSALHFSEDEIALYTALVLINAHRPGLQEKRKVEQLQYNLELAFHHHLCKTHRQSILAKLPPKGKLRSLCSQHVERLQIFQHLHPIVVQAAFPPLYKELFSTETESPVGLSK
Protocol: This approach is applicable to a wide variety of systems, and rigorous in theoretical interpretation through quantitation of equilibrium binding constants (KD).
The shift in the melting point described as a ΔTm is proportional to the concentration and affinity of the ligand.
Protein and compound solutions are dispensed into black 384-well polypropylene PCR microplates (Abgene) and overlayed with silicone oil (1 μL, Fluka, type DC 200) to prevent evaporation.
Bar-coded assay plates are robotically loaded onto a thermostatically controlled PCR-type thermal block and then heated at a typical ramp-rate of 1° C./min for all experiments.
Fluorescence was measured by continuous illumination with UV light (Hamamatsu LC6) supplied via fiber optic and filtered through a band-pass filter (380-400 nm; >6 OD cutoff). Fluorescence emission of the entire 384-well plate was detected by measuring light intensity using a CCD camera (Sensys, Roper Scientific) filtered to detect 500±25 nm, resulting in simultaneous and independent readings of all 384 wells. Images were collected at each temperature, and the sum of the pixel intensity in a given area of the assay plate was recorded versus temperature. Reference wells contained RORγt without compounds, and the assay conditions were as follows: • 0.065 mg/mL RORγt • 60 μM 1,8-ANS • 100 mM Hepes, pH 7.0 • 10 mM NaCl • 2.5 mM GSH • 0.002% Tween-20
Project compounds were arranged in a pre-dosed mother plate (Greiner Bio-one) wherein compounds are serially diluted in 100% DMSO by 1:2 from a high concentration of 10 mM over 12 columns within a series (column 12 is a reference well containing DMSO, no compound). The compounds were robotically dispensed directly into assay plates (1×=46 nL) using a Hummingbird capillary liquid handling instrument (Digilab). Following compound dispense, protein and dye in buffer was added to achieve the final assay volume of 3 μL, followed by 1 μL of silicone oil.

full-length human RORγt = target: T2, full-length human RORγt (Homo sapiens, UniProt P51449); assay: RORγt (full-length human) Reporter Assay, Conditions A; type: cell-based; details: for pIC50: HEK293T cells, GAL4-DBD-RORγt, luciferase, read-out: RORγt (FL) Reporter Assay A, IC50; for inhibition at 6 µM: read-out: RORγt (FL) Reporter Assay A, % inhibition @ 6 μM, 6 μM compound; for inhibition at 0.67 µM: 0.67 μM compound concentration, read-out: RORγt (FL) Reporter Assay A, % inhibition (** at 0.67 μM)
T2 construct: expressed in transfected cells; host or cells: HEK293T, transiently transfected with pCMV-BD-ROR
T2 sequence (P51449 1-497 isoform P51449-2): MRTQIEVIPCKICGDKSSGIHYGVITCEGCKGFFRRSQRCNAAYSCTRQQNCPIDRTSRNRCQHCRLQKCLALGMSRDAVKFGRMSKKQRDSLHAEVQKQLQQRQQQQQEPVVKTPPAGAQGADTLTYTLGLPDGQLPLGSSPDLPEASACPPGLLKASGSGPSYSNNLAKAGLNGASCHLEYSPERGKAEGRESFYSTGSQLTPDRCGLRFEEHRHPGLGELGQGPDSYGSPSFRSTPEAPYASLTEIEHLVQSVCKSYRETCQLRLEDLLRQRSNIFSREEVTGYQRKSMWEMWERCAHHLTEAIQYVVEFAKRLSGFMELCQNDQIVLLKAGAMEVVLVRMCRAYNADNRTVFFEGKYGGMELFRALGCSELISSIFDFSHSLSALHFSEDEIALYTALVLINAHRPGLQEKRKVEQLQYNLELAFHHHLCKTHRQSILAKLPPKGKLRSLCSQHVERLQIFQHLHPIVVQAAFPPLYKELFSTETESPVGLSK
Protocol: After overnight (16 to 20 hours) incubation, media were removed and cells were lysed with 20 μL 1× Passive Lysis Buffer (Promega) for 10-15 minutes. Luminescence was measured using a BMG LUMIstar OPTIMA plate reader, after addition of 75 μL/well firefly luciferase buffer, followed by 75 μL/well Renilla luciferase buffer. To calculate the effect of compounds on RORγt activity, firefly values were normalized against values of DMSO only and values of reference compound at saturating concentration, then further normalized against Renilla signals. IC50s were generated by plotting final Renilla normalized data against compound concentration and percent inhibition was calculated against DMSO control.

| Structure (SMILES) | pKd [1] | pIC50 (full-length human RORγt) | inhibition at 6 µM (full-length human RORγt) [%] | inhibition at 0.67 µM (full-length human RORγt) [%] | inhibition at 2 µM (full-length human RORγt; read-out: RORγt (FL) Reporter Assay A, % inhibition (* at 2 μM), 2 μM compound concentration (footnote *)) [%] |
| --- | --- | --- | --- | --- | --- |
| CC[C@H](NS(=O)(=O)c1ccc(-c2sc(-c3nnc(CC(C)(C)C#N)o3)nc2C(=O)N2CCC(F)CC2)c(Cl)c1Cl)C(F)(F)F [Example 1/1, (S)-2,3-Dichloro-4-(2-(5-(2-cyano-2-methylpropyl)-1,3,4-oxadiazol-2-yl)-4-(4-fluoropiperidine-1-carbonyl)thiazol-5-yl)-N-(1,1,1-trifluorobutan-2-yl)benzenesulfonamide] | 9.00 | 8.00 | 106 | – | – |
| COC1(c2nnc(-c3nc(C(=O)N4CCC(F)(F)CC4)c(-c4ccc(S(=O)(=O)N[C@@H](C)C(F)(F)F)c(Cl)c4Cl)s3)o2)CC1 [Example 1/2, (S)-2,3-Dichloro-4-(4-(4,4-difluoropiperidine-1-carbonyl)-2-(5-(1-methoxycyclopropyl)-1,3,4-oxadiazol-2-yl)thiazol-5-yl)-N-(1,1,1-trifluoropropan-2-yl)benzenesulfonamide] | 9.38 | 7.96 | – | 105 | – |
| C[C@H](NS(=O)(=O)c1ccc(-c2sc(-c3nnc(C4(C(F)(F)F)CC4)o3)nc2C(=O)N2CCC(F)(F)CC2)c(Cl)c1Cl)C(F)(F)F [Example 1/3, (S)-2,3-Dichloro-4-(4-(4,4-difluoropiperidine-1-carbonyl)-2-(5-(1-(trifluoromethyl)cyclopropyl)-1,3,4-oxadiazol-2-yl)thiazol-5-yl)-N-(1,1,1-trifluoropropan-2-yl)benzenesulfonamide] | 9.15 | 8.35 | – | 103 | – |
| C[C@H](NS(=O)(=O)c1ccc(-c2sc(-c3nnc(CS(C)(=O)=O)o3)nc2C(=O)N2CCC(F)(F)CC2)c(Cl)c1Cl)C(F)(F)F [Example 1/4, (S)-2,3-Dichloro-4-(4-(4,4-difluoropiperidine-1-carbonyl)-2-(5-((methylsulfonyl)methyl)-1,3,4-oxadiazol-2-yl)thiazol-5-yl)-N-(1,1,1-trifluoropropan-2-yl)benzenesulfonamide] | 8.33 | 7.26 | 101 | – | – |
| CC[C@H](NS(=O)(=O)c1ccc(-c2sc(-c3nnc(CC(C)(C)C(=O)O)o3)nc2C(=O)N2CCCC[C@@H]2C)c(Cl)c1Cl)C(F)(F)F [Example 2, 3-(5-(5-(2,3-Dichloro-4-(N—((S)-1,1,1-trifluorobutan-2-yl)sulfamoyl)phenyl)-4-((S)-2-methylpiperidine-1-carbonyl)thiazol-2-yl)-1,3,4-oxadiazol-2-yl)-2,2-dimethylpropanoic acid] | 11.52 | 7.00 | 104 | – | – |
| C[C@H]1CCCCN1C(=O)c1nc(-c2nnc(CC(C)(C)C(=O)O)o2)sc1-c1ccc(C(O)(C(F)(F)F)C(F)(F)F)c(Cl)c1Cl [Example 2/1, (S)-3-(5-(5-(2,3-Dichloro-4-(1,1,1,3,3,3-hexafluoro-2-hydroxypropan-2-yl)phenyl)-4-(2-methylpiperidine-1-carbonyl)thiazol-2-yl)-1,3,4-oxadiazol-2-yl)-2,2-dimethylpropanoic acid] | 9.01 | 6.64 | 102 | – | – |
| CC[C@H](NS(=O)(=O)c1ccc(-c2sc(-c3nnc(C(C)(C)O)o3)nc2C(=O)N2CCC(F)CC2)c(Cl)c1Cl)C(F)(F)F [Example 6/1, (S)-2,3-Dichloro-4-(4-(4-fluoropiperidine-1-carbonyl)-2-(5-(2-hydroxypropan-2-yl)-1,3,4-oxadiazol-2-yl)thiazol-5-yl)-N-(1,1,1-trifluorobutan-2-yl)benzenesulfonamide] | – | – | – | – | 102 |
| CC[C@H](NS(=O)(=O)c1ccc(-c2sc(-c3noc(CC(C)(C)C(=O)O)n3)nc2C(=O)N2CCCC[C@@H]2C)c(Cl)c1Cl)C(F)(F)F [Example 10, 3-(3-(5-(2,3-Dichloro-4-(N—((S)-1,1,1-trifluorobutan-2-yl)sulfamoyl)phenyl)-4-((S)-2-methylpiperidine-1-carbonyl)thiazol-2-yl)-1,2,4-oxadiazol-5-yl)-2,2-dimethylpropanoic acid] | – | 8.05 | 104 | – | – |
| CC[C@H](NS(=O)(=O)c1ccc(-c2sc(-c3noc(CC(C)(C)C(=O)O)n3)nc2C(=O)N2CCCC[C@@H]2C)c(C(F)F)c1Cl)C(F)(F)F [Example 10/4, 3-(3-(5-(3-Chloro-2-(difluoromethyl)-4-(N—((S)-1,1,1-trifluorobutan-2-yl)sulfamoyl)phenyl)-4-((S)-2-methylpiperidine-1-carbonyl)thiazol-2-yl)-1,2,4-oxadiazol-5-yl)-2,2-dimethylpropanoic acid] | – | 7.48 | 99 | – | – |
| CC(C)(O)c1nnc(-c2nc(C(=O)N3CCC(F)(F)CC3)c(-c3ccc(C(O)(C(F)(F)F)C(F)(F)F)cc3C(F)F)s2)o1 [Example 28, (5-(2-(difluoromethyl)-4-(1,1,1,3,3,3-hexafluoro-2-hydroxypropan-2-yl)phenyl)-2-(5-(2-hydroxypropan-2-yl)-1,3,4-oxadiazol-2-yl)thiazol-4-yl)(4,4-difluoropiperidin-1-yl)methanone] | 8.26 | – | – | – | – |
| C[C@H]1CCCN1C(=O)c1nc(-c2nnc(C(C)(C)O)o2)sc1-c1ccc(C(O)(C(F)(F)F)C(F)(F)F)cc1C(F)F [Example 29, (S)-(5-(2-(difluoromethyl)-4-(1,1,1,3,3,3-hexafluoro-2-hydroxypropan-2-yl)phenyl)-2-(5-(2-hydroxypropan-2-yl)-1,3,4-oxadiazol-2-yl)thiazol-4-yl)(2-methylpyrrolidin-1-yl)methanone] | 7.77 | – | – | – | – |
| C[C@H]1CCCN1C(=O)c1nc(-c2noc(C(C)(C)O)n2)sc1-c1ccc(C(O)(C(F)(F)F)C(F)(F)F)cc1C(F)F [Example 30, (S)-(5-(2-(difluoromethyl)-4-(1,1,1,3,3,3-hexafluoro-2-hydroxypropan-2-yl)phenyl)-2-(5-(2-hydroxypropan-2-yl)-1,2,4-oxadiazol-3-yl)thiazol-4-yl)(2-methylpyrrolidin-1-yl)methanone] | 7.66 | – | – | – | – |
| Cc1cc(C(O)(C(F)(F)F)C(F)(F)F)ccc1-c1sc(-c2nnc(C(C)(C)O)o2)nc1C(=O)N1CCC[C@@H]1C [Example 31, (S)-(5-(4-(1,1,1,3,3,3-hexafluoro-2-hydroxypropan-2-yl)-2-methylphenyl)-2-(5-(2-hydroxypropan-2-yl)-1,3,4-oxadiazol-2-yl)thiazol-4-yl)(2-methylpyrrolidin-1-yl)methanone] | 7.74 | – | – | – | – |
| Cc1cc(C(O)(C(F)(F)F)C(F)(F)F)ccc1-c1sc(-c2noc(C(C)(C)O)n2)nc1C(=O)N1CCC[C@@H]1C [Example 32, (S)-(5-(4-(1,1,1,3,3,3-hexafluoro-2-hydroxypropan-2-yl)-2-methylphenyl)-2-(5-(2-hydroxypropan-2-yl)-1,2,4-oxadiazol-3-yl)thiazol-4-yl)(2-methylpyrrolidin-1-yl)methanone] | 7.57 | – | – | – | – |
